Measured values taken from patent US7683095B2, “Compositions and methods of treating, reducing and preventing cardiovascular diseases and disorders with polymethoxyflavones” (The United States of America as represented by the …, priority 1998, dated 2010).
Values after ≈ are worked out from the molar mass of the structure shown.

Test system: apolipoprotein B (apoB) production
Experiment: apo B secretion into medium of HepG2 cells, competitive ELISA
Type: cell-based, human
Conditions: for inhibitory effect on apo-B production: result in words, these results along with other preliminary studies, alone or in combination; for % apo B reduction / Apo B μg/mL medium / % apo B in medium: HepG2, 24 hours; for % apo B in medium: percent of control; for IC50: Homo sapiens, apo B in medium of HepG2 cells, 24 hours incubation, read-out: IC50 concentrations
Protocol: Limocitrin derivatives, quercetin derivatives, naturally occurring polymethoxyflavones, and tocotrienols were tested for cholesterol lowering activity in HepG2 cells. Confluent HepG2 cells were preincubated for 24 hours in a lipoprotein-free medium (Minimum Essential Medium (MEM), Life Technologies, Burlington, Canada) in which the fetal bovine serum (Life Technologies, Burlington, Canada) was replaced by bovine serum albumin (BSA, Life Technologies, Burlington, Canada) to inhibit cell proliferation and to stimulate synthesis of cholesterol-containing lipoproteins. Cells were subsequently incubated for another 24 hours in the same medium in the presence or absence of limocitrin derivatives, quercetin derivatives, naturally occurring polymethoxyflavones, or tocotrienols (See Table 1) at the highest concentrations sustaining about 100%±10% cell viability, as determined by the 3-(4,5-dimethylthiazol-2-yl)-2,5-diphenyltetrazolium bromide (MTT) viability assay. The test compounds were added to the cell culture medium after solubilization in dimethyl sulfoxide (DMSO) and filter sterilized. […] For each experiment, equal concentrations of solvent were added to all treatment media and to a control medium (without tested compounds). At the end of the incubation, culture media were collected and the concentration of the LDL structural protein, apo-B, was measured by ELISA. The competitive Elisa assay kit for determination of human apo B (Ortho Diagostics, LaJolla, Calif.) measures medium apo B concentrations within the range 0.4-0.031 μg/mL. In this assay, microtiter 96-well plates are coated with monoclonal antibody against human apo B, which binds apo B epitope from human LDL (standard curve, control sera with high and low content of human apo B) or from LDL-like lipoproteins secreted by HepG2 cells (tested media, usually 2× diluted with Ca^2+- and […]-free phosphate buffered saline (PBS)). After the exposure, a fraction of antibody is blocked and the remaining amount is captured by a subsequent incubation with conjugate containing a secondary antibody (against anti-human apo B) coupled with horseradish peroxidase. The following incubation with horseradish peroxidase substrate, o-phenylenediamine, produces a yellow color change proportional to the amount of apo B present, and the optical density of samples is measured at 490-492 nm against the blank PBS/conjugate wells. To determine whether evaluated compounds cross-react with Elisa assay, in separate study, various doses of compounds were tested in presence of cell-free culture media.
Amount of lipoprotein-associated apo-B in the media net apo-B secretion) was determined as described above, and calculated per mg cell protein. Net apo B3 secretion was also expressed as percent of control (amount of apo B in medium from cells incubated without tested compounds).

[1] = concentration 6.25 μg/mL medium
[2] = concentration 12.5 μg/mL medium
[3] = concentration 25.0 μg/mL medium
[4] = concentration 50.0 μg/mL medium
[5] = concentration 3.12 μg/mL medium

| Structure (SMILES) | inhibitory effect on apo-B production | % apo B reduction [1] | Apo B μg/mL medium [1] | % apo B reduction [2] | Apo B μg/mL medium [2] | % apo B in medium [1] | % apo B in medium [2] | % apo B reduction [3] | Apo B μg/mL medium [3] | % apo B in medium [3] | further results |
| --- | --- | --- | --- | --- | --- | --- | --- | --- | --- | --- | --- |
| COc1ccc(-c2cc(=O)c3c(OC)cc(OC)c(OC)c3o2)cc1 [tetra-O-methylisoscutellarein, 5,7,8,4′-tetramethoxyflavone] | inhibitory effects |  |  |  |  |  |  |  |  |  |  |
| CCOc1ccc(-c2oc3c(OC)c(OCC)cc(OCC)c3c(=O)c2OCC)cc1OC [limocitrin-3,5,7,4′-tetraethylether] | inhibitory effects |  |  |  |  |  |  |  |  |  |  |
| COc1cc(OC)c2c(=O)c(OC(C)=O)c(-c3ccc(OC)c(OC)c3)oc2c1 [quercetin-5,7,3′,4′-tetramethylether-3-acetate] | inhibitory effects |  |  |  |  |  |  |  |  |  |  |
| COc1cc(OC)c2c(=O)c(O)c(-c3ccc(OC)c(OC)c3)oc2c1 [quercetin-5,7,3′,4′-tetramethylether, 3-hydroxy-5,7,3′,4′-tetramethoxyflavone] | inhibitory effects |  |  |  |  |  |  |  |  |  |  |
| COc1ccc(-c2cc(=O)c3c(OC)c(OC)c(OC)cc3o2)cc1 [Tetra-O-methyl-Scutellarein] |  | 29% | 0.305 ± 0.03 μg/mL medium | 41% | 0.255 ± 0.06 μg/mL medium | 71 ± 7% | 59 ± 13% |  |  |  |  |
| COc1ccc(-c2cc(=O)c3c(O)c(OC)c(OC)cc3o2)cc1OC [5-desmethylsinensetin, 5-hydroxy-6,7,3′,4′-tetramethoxyflavone] | inhibitory effects |  |  |  |  |  |  | 27% | 0.84 ± 0.21 μg/mL medium | 73 ± 18% | % apo B reduction [4]: 64%; Apo B μg/mL medium [4]: 0.41 ± 0.20 μg/mL medium; % apo B in medium [4]: 36 ± 1% |
| COc1ccc(-c2cc(=O)c3c(OC)c(OC)c(OC)c(OC)c3o2)cc1 [tangeretin, 5,6,7,8,4′-pentamethoxyflavone] | inhibitory effects | 78% | 0.055 ± 0.01 μg/mL medium | 81% | 0.048 ± 0.01 μg/mL medium | 22 ± 2% | 19 ± 2% | 86% | 0.035 ± 0.01 μg/mL medium | 14 ± 1% | % apo B reduction [5]: 68%; Apo B μg/mL medium [5]: 0.080 ± 0.02 μg/mL medium; IC50: 2.5 µg/mL (≈ 6.71 µM); % apo B in medium [5]: 32 ± 8% |
| COc1ccc(-c2oc3c(OC)c(OC)cc(O)c3c(=O)c2OC)cc1OC [limocitrin-3,7,4′-trimethylether, 5-hydroxy-3,7,8,3′,4′-pentamethoxyflavone] | inhibitory effects |  |  |  |  |  |  |  |  |  |  |
| COc1cc(O)c2c(=O)c(OC)c(-c3ccc(OC)c(OC)c3)oc2c1 [quercetin tetramethylether, 5-hydroxy-3,7,3′,4′-tetramethoxyflavone] | inhibitory effects |  |  |  |  |  |  |  |  |  |  |
| COc1ccc(-c2cc(=O)c3c(OC)c(OC)c(OC)cc3o2)cc1OC [Sinensetin, 5,6,7,3′,4′-pentamethoxyflavone] | inhibitory effects | 25% | 0.70 ± 0.13 μg/mL medium | 42% | 0.54 ± 0.04 μg/mL medium | 75 ± 14% | 58 ± 4% | 62% | 0.35 ± 0.04 μg/mL medium | 38 ± 5% | % apo B reduction [4]: 72%; Apo B μg/mL medium [4]: 0.26 ± 0.02 μg/mL medium; IC50: 17.8 µg/mL (≈ 47.8 µM); % apo B in medium [4]: 28 ± 5% |
| COc1ccc(-c2oc3c(OC)c(OC)c(OC)c(OC)c3c(=O)c2OC)cc1OC [Heptamethoxyflavone, 3,5,6,7,8,3′,4′-heptamethoxyflavone] | inhibitory effects | 45% | 0.138 ± 0.02 μg/mL medium | 68% | 0.080 ± 0.02 μg/mL medium | 55 ± 5% | 32 ± 9% | 81% | 0.048 ± 0.01 μg/mL medium | 19 ± 3% | % apo B reduction [4]: 82%; Apo B μg/mL medium [4]: 0.045 ± 0.01 μg/mL medium; IC50: 7.8 µg/mL (≈ 18 µM); % apo B in medium [4]: 18 ± 2% |
| COc1ccc(-c2oc3c(OC)c(OC)cc(OC(C)=O)c3c(=O)c2OC)cc1OC [limocitrin-3,7,4′-trimethylether-5-acetate] | inhibitory effects |  |  |  |  |  |  |  |  |  |  |
| COc1c(-c2ccc(OCc3ccccc3)c(OCc3ccccc3)c2)oc2cc(OCc3ccccc3)cc(OC)c2c1=O [quercetin-3,5-dimethylether-7,3′,4′-tribenzyl ether] | inhibitory effects |  |  |  |  |  |  |  |  |  |  |
| COc1ccc(-c2cc(=O)c3c(O)c(OC)c(OC)c(OC)c3o2)cc1OC [5-desmethylnobiletin, 5-hydroxy-6,7,8,3′,4′-pentamethoxyflavone] | inhibitory effects |  |  |  |  |  |  |  |  |  |  |
| COc1ccc(-c2oc3c(OC)c(OC)cc(OC)c3c(=O)c2OC)cc1OC [limocitrin-3,5,7,4′-tetramethylether, 3,5,7,8,3′,4′-hexamethoxyflavone] | inhibitory effects |  |  |  |  |  |  |  |  |  |  |
| COc1ccc(-c2cc(=O)c3c(OC)c(OC)c(OC)c(OC)c3o2)cc1OC [nobiletin, 5,6,7,8,3′,4′-hexamethoxyflavone] | inhibitory effects | 33% | 0.37 ± 0.09 μg/mL medium | 68% | 0.175 ± 0.03 μg/mL medium | 67 ± 16% | 32 ± 6% | 82% | 0.10 ± 0.01 μg/mL medium | 18 ± 1% | % apo B reduction [4]: 83%; Apo B μg/mL medium [4]: 0.095 ± 0.01 μg/mL medium; IC50: 4.9 µg/mL (≈ 12.2 µM); % apo B in medium [4]: 17 ± 1% |
